Here are results for one compound from US7053215B2, “Substituted Quinazolin-4(3H)-one compounds, compositions, and methods for their use” (Amgen SF, LLC, priority 2000, dated 2006).

`CC(c1nc2ccccc2c(=O)n1-c1ccc(F)cc1)N(Cc1ccccn1)C(=O)Cc1ccc(C(F)(F)F)cc1.Cl` (stereo not shown) displayed a melting point of 159.2 °C.

Broadly, the melting point is the temperature of the solid-liquid transition.
